The test system of test [1] is hES cells. As to the kind of experiment: Inhibition of survival assay on LN-521. The format is cell-based, human. Conditions: medium contained bFGF. Here is the method:
(§1) The survival assay was performed as described for the cell adhesion assay above, except that the cells were left in the cell incubator for 24 hours. For inhibition of survival assay, the cells were kept in a medium with function blocking antibodies at the concentrations recommended by the manufacturer or pathway inhibitors at concentrations indicated in the text for 30 minutes, and then plated on the coated dishes. All the experiments were performed in quadruplicate.

Test [2] concerns PI3K/Akt and MEK1/Erk pathways. The test can be described thus: Western blot with antibodies to phospho-Akt / phospho-Erk. Conditions: cells collected one hour after plating on LN-521. The format is cell-based, human. Here is the method: HS 181 cells were trypsinized into single cell suspension as described above. For inhibition experiments, the cells were kept in O3 medium with blocking antibodies or pathway inhibitors for 30 minutes and then 450K cells were plated on 35 mm dishes precoated with the appropriate matrix coating. For other experiments, same number of cells was plated directly after trypsinization. In all cases the cells were allowed to spread for 1 hour at 37° C., 5% CO2. After two washings in ice-cold PBS, the plates with cells were snap frozen in liquid nitrogen and stored at −80° C. To prepare samples for western blots and ELISA, the plates were slowly thawed and kept on ice with 100-150 μl of lysis buffer (50 mM Tris-HCl, pH7.5, 150 mM NaCl, 0.5% deoxycholate, 0.5% SDS, 1% Triton X-100, 1% Igepal, Complete™ (Roche) and Phospho-Stop™ (Roche)) on top. Then, the cells were scraped, pipetted and sheared through a 27G ¾″ needle. After that, the cell pellets were clarified by centrifugation at 16,100 rcf for 15 minutes at 4° C. For western blots, 4-12% gradient gels were used for SDS electrophoresis and the proteins were transferred to PVDF membranes. The membrane was hybridized with the antibody of interest according to the manufacturer's instructions. […] For the densitometry analysis the films were scanned at 2,400 dpi and analyzed by the Chemilmager5500 program (1D-Multi Line densitometry mode). […]

The subject of test [3] is human ES cells. As to the kind of experiment: Cell adhesion / single cell survival 1 day after plating (Example 1). The format is cell-based. Conditions: for cells remaining attached / surviving 24 hours after plating: completely dissociated H5181 cells, O3 medium without any additives, no ROCK inhibitor. Here is the method:
(§2) Ninety-six-well tissue cell culture plates were coated overnight at 4° C. with sterile solutions of the ECM proteins mouse LN-111 (Invitrogen), human recombinant LN-511, and human recombinant LN-521, all at a concentration of 30 μg/ml (5 μg/cm^2). For control cells, BD Matrigel™ hESC qualified (BD Biosciences) was used according to the manufacturer's instructions.
(§3) The assay was performed as described (Extracellular Matrix Protocols, 2000). Briefly, 96-well plates were coated by extracellular matrix proteins as described above and blocked by O3 medium containing bovine serum albumin. The ES cells were plated at a cell density of 600 cell/mm^2 upon extracellular matrix-coated plates and were left to adhere for either 1 hour or 1 day at the cell incubator. Non-adherent cells were washed away, and adherent cells were fixed for 20 min by 5% glutaraldehyde, stained by 0.1% Crystal Violet.

Test [4] deals with hES cells. The test can be described thus: Cell survival assay, 24 hours (Example 2). The format is cell-based, human. The note with it: for survival after 24 hours: dissociated hES cells; for survival 24 hours after plating: single cell suspension, O3 medium, absence of ROCK inhibitor. On the procedure:
as §1
Pluripotent hES cells express α1, α5, β1, β2 and γ1 laminin chains. To compare the adhesion and clonal survival of hES cells plated from single cell suspension to different coating substrata, hES cells growing as monolayers on LN-511 or as clusters on a feeder layer were trypsinized into single cell suspension in O3 medium and plated on cell culture dishes coated with Matrigel, LN-111, LN-511, LN-521 or a mixture of LN-511 and LN-521, in the absence or presence of a ROCK inhibitor (Y-27632) and analyzed after 24 hours.

Test [5] concerns human ES cells. The test can be described thus: Cell adhesion assay, 1 hour (Example 1). The format is cell-based. The note with it: O3 medium without any additives, without Y-27632. Here is the method: as §2, §3
The test system of test [6] is human embryonic stem cells. The test can be described thus: Survival of dissociated human embryonic stem cells one day after plating on precoated dishes. Format: cell-based. Conditions: single cell suspension, O3 medium, 30 Kcells/cm^2. From the text: In other aspects, the present disclosure provides a new material, isolated laminin-521, which permits human embryonic stem cell survival after dissociation into single cell suspension. The stem cells were dissociated into single cell suspension by Trypsin-EDTA treatment, pelleted by centrifugation, resuspended into O3 medium, filtered through a 40 μm sieve, and plated at a density of 30 Kcells/cm^2 on cell culture dishes precoated by either isolated laminin-521, laminin-511, or Matrigel. After one day in culture, the cells plated on Matrigel died, as is known in the art.

In test [7] the test system is hES cells. As to the kind of experiment: Cell adhesion assay, 1 hour (Example 2). The format is cell-based, human. Conditions: not shown. On the procedure: Tissue cell culture plates were coated overnight at 4° C. with sterile solutions of the ECM proteins, such as human recombinant LN-521, all at a concentration of 30 μg/ml (5 μg/cm^2). Control plates were coated with Matrigel according to the STEMCELL Technologies' instructions. Prior to use, dishes were pre-warmed in an incubator for one hour after which prewarmed O3 medium was added without additional washing of the dish. After applying a fresh LN-521 solution to a new dish, the remaining LN-521 solution could be used at least once more. All the adhesion, survival, and inhibition of survival experiments were carried out using fresh coating materials.
Briefly, 96-well plates were coated by extracellular matrix proteins as described above and blocked by O3 medium containing bovine serum albumin. The ES cells were plated at cell density of 50,000 cells/cm^2 onto extracellular matrix-coated plates and left to adhere for 1 hour in a cell incubator. After that the plates were washed 3 times with the medium to remove the non-adherent cells, and then the adherent cells were fixed for 20 minutes by 5% glutaraldehyde, stained by 0.1% Crystal Violet. (Kebo Lab, Spanga, Sweden, http://www.kebolab.se). After one hour and 3 washes with water, Crystal Violet was extracted with 10% acetic acid and quantified by measuring optical density at 570 nm. All the experiments were performed in quadruplicate.

For test [8], the system named is phosphorylated myosin light chain (P-MLC). The test can be described thus: Western blot of phosphorylated myosin light chain. Format: cell-based, human. The note with it: one and six hours after plating. On the procedure:
HS 181 cells were trypsinized into single cell suspension as described above. For inhibition experiments, the cells were kept in O3 medium with blocking antibodies or pathway inhibitors for 30 minutes and then 450K cells were plated on 35 mm dishes precoated with the appropriate matrix coating. For other experiments, same number of cells was plated directly after trypsinization. […] After two washings in ice-cold PBS, the plates with cells were snap frozen in liquid nitrogen and stored at −80° C. To prepare samples for western blots and ELISA, the plates were slowly thawed and kept on ice with 100-150 μl of lysis buffer (50 mM Tris-HCl, pH7.5, 150 mM NaCl, 0.5% deoxycholate, 0.5% SDS, 1% Triton X-100, 1% Igepal, Complete™ (Roche) and Phospho-Stop™ (Roche)) on top. Then, the cells were scraped, pipetted and sheared through a 27G ¾″ needle. After that, the cell pellets were clarified by centrifugation at 16,100 rcf for 15 minutes at 4° C. For western blots, 4-12% gradient gels were used for SDS electrophoresis and the proteins were transferred to PVDF membranes. The membrane was hybridized with the antibody of interest according to the manufacturer's instructions. Chemoluminescent HRP-substrate from Amersham Biosciences was used for visualization. For the densitometry analysis the films were scanned at 2,400 dpi and analyzed by the Chemilmager5500 program (1D-Multi Line densitometry mode). […]
A general note: In western blotting, separated proteins are transferred to a membrane and probed.

The next test has as its target Integrin α6β1 (Homo sapiens, UniProt P05556+P23229). Conditions: cited from earlier work.
Test [9] deals with human ES cells. The note with it: teratomas after engraftment into SCID mice; cited from earlier work.
The test system of the next test is mouse ES cells. Conditions: without LIF or feeder cells; cited from earlier work.
For test [10], the system named is hES cells. The test can be described thus: Clonal survival of individualized hES cells (Example 4). The format is cell-based, human. The note with it: mTeSR1 medium, 250 cells per cm^2, 5 days, alkaline phosphatase staining. On the procedure: hES cells were plated in mTeSR1 medium on different coatings at a density of 250 cells per cm^2 and monitored after 5 days in culture using an alkaline phosphatase staining kit.
Next, combinations of laminin-521 and E-Cadherin were tested to determine whether the combinations could sustain clonal survival of the cells. Fixed amounts of laminin-521 were used for the cell culture dish coating in combination with titrated E-Cadherin.
Additional tests were performed to test the effects of various modifications to the mTeSR1 medium. A mixture of E-Cadherin to laminin-521 in a ratio of about 1:10 w/w was used to coat the plates. […] Time-lapse photography of the cells confirmed that laminin-521/E-Cadherin coatings facilitated cell survival through proliferation of the single cells, not through the aggregation of different cells.

Integrin α6β1, sequence (P23229 24-1130): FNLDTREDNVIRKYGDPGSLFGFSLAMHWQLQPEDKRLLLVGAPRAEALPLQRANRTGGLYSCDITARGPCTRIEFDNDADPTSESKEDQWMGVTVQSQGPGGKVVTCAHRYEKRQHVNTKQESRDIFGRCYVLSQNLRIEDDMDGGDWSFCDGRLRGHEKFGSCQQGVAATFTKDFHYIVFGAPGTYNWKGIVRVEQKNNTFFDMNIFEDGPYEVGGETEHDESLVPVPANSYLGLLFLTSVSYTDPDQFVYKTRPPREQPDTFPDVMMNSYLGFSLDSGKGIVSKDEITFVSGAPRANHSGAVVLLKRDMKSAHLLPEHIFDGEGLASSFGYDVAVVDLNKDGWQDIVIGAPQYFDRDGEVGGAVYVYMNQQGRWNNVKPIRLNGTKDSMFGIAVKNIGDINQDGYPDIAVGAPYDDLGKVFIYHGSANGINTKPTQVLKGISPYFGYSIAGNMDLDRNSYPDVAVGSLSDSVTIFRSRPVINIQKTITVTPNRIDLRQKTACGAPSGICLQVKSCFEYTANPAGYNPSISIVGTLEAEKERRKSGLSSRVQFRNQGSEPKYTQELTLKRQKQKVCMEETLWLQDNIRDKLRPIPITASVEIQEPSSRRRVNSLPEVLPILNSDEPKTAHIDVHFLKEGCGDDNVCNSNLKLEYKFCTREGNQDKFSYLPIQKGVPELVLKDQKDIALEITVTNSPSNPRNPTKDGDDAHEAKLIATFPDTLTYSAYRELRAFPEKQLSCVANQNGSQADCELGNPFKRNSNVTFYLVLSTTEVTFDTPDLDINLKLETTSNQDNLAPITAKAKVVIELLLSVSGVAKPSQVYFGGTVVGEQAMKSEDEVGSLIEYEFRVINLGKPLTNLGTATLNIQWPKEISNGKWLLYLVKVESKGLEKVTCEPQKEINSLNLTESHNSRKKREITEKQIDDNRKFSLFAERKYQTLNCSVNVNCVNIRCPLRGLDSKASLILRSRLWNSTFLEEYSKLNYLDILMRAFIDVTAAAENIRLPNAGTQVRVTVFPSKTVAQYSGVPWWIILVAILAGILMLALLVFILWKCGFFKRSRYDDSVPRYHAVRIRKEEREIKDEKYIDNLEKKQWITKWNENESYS
Integrin α6β1, sequence (P05556 21-798): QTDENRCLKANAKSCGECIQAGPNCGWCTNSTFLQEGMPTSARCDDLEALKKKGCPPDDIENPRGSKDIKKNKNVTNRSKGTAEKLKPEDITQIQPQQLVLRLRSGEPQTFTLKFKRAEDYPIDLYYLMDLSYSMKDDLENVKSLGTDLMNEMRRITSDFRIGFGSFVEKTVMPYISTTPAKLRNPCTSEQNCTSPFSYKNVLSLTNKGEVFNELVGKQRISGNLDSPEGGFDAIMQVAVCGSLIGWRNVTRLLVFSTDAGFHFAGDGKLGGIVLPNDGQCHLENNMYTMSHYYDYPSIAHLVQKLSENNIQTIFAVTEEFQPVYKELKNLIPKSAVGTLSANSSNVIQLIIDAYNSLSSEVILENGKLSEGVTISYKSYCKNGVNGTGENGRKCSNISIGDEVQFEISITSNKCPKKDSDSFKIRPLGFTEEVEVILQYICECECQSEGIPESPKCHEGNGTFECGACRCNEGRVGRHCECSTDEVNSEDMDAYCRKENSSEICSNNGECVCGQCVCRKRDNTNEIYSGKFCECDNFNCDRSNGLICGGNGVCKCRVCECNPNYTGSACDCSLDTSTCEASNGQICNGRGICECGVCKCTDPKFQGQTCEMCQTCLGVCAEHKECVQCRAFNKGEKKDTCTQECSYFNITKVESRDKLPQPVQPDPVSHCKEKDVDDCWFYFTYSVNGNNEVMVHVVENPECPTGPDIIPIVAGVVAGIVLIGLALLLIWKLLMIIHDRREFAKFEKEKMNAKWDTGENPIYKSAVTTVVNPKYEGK

Take `COc1cccc(-c2cc(=O)c3ccccc3o2)c1N` [PD 98059]: the “hES cell survival 24 hours after plating on LN-521 with pathway inhibitor” value with hES cells [1] was “did not affect the survival that severely”. Also, the “efficacy of inhibitor treatment by western blot” value in [2] was “confirmed”.
Consider “LN-111: mouse laminin-111 (Invitrogen), indicated as LN-111 if not otherwise stated”, for which the “cells remaining attached / surviving 24 hours after plating” value with human ES cells [3] was “almost no cells remained attached”. Besides, in the test with hES cells [4], the “survival after 24 hours” value is reported as “almost no cells had survived” and the “survival 24 hours after plating” value is given as “did not survive”.
Take “LN-511: human recombinant laminin-511 coating protein”: the “adhesion of human ES cells at 1 hour” value in the test with human ES cells [5] was “roughly the same”. Besides, the “cells remaining attached / surviving 24 hours after plating” value in the test with human ES cells [3] was “at a less extent”. For the same molecule, the “survival after one day in culture” value in [6] is reported as “in most cases”. Besides, in the test with hES cells [7], the “spreading of the cells after one hour compared with Matrigel or LN-111” value is on record as “clearly better”. Moreover, in the test with hES cells [4], the “survival after 24 hours” value is “very few” and the “survival 24 hours after plating” value is “did so as single cells”. Also, the “phosphorylation of MLC compared with cells on Matrigel and LN-111” value in test [8] is reported as “even higher”. Moreover, the “binding affinity of integrin α6β1 compared with LN-111” value in the test with Integrin α6β1 was “higher”. Also, the “pluripotency of human ES cells grown over 3 months” value in the test with human ES cells [9] is given as “maintain pluripotency”. The “duration of self-renewal of mouse ES cells” value with mouse ES cells is listed as “over 5 months”.
“LN-121: human recombinant laminin with α1, β2 and γ1 chains from triple-transfected HEK293 cells”: the “survival 24 hours after plating” value in the test on hES cells [4] is “failed to survive”.
For `C[C@@H](N)[C@H]1CC[C@H](C(=O)Nc2ccncc2)CC1` [Y-27632, reference compound], the “cells remaining attached after one day” value with human ES cells [3] (O3 medium treated with ROCK inhibitor Y-27632, 5 coatings) was “remained attached on all 5 coatings”. The “survival 24 hours after plating in the presence of ROCK inhibitor” value in the test with hES cells [4] (Matrigel, LN-111, LN-511, LN-521 or mixture coatings) is listed as “survived on all surfaces”.
Consider “human recombinant LN-111: human recombinant laminin with α1, β1 and γ1 chains from triple-transfected HEK293 cells”, for which the “survival 24 hours after plating” value with hES cells [4] was “failed to survive”.

B1: E-Cadherin: epithelial-cadherin used as cell culture dish coating (protein, UniProt P12830 155-882, looked up)
Cadherin-1: DWVIPPISCPENEKGPFPKNLVQIKSNKDKEGKVFYSITGQGADTPPVGVFIIERETGWLKVTEPLDRERIATYTLFSHAVSSNGNAVEDPMEILITVTDQNDNKPEFTQEVFKGSVMEGALPGTSVMEVTATDADDDVNTYNAAIAYTILSQDPELPDKNMFTINRNTGVISVVTTGLDRESFPTYTLVVQAADLQGEGLSTTATAVITVTDTNDNPPIFNPTTYKGQVPENEANVVITTLKVTDADAPNTPAWEAVYTILNDDGGQFVVTTNPVNNDGILKTAKGLDFEAKQQYILHVAVTNVVPFEVSLTTSTATVTVDVLDVNEAPIFVPPEKRVEVSEDFGVGQEITSYTAQEPDTFMEQKITYRIWRDTANWLEINPDTGAISTRAELDREDFEHVKNSTYTALIIATDNGSPVATGTGTLLLILSDVNDNAPIPEPRTIFFCERNPKPQVINIIDADLPPNTSPFTAELTHGASANWTIQYNDPTQESIILKPKMALEVGDYKINLKLMDNQNKDQVTTLEVSVCDCEGAAGVCRKAQPVEAGLQIPAILGILGGILALLILILLLLLFLRRRAVVKEPLLPPEDDTRDNVYYYDEEGGGEEDQDFDLSQLHRGLDARPEVTRNDVAPTLMSVPRYLPRPANPDEIGNFIDENLKAADTDPTAPPYDSLLVFDYEGSGSEAASLSSLNSSESDKDQDYDYLNEWGNRFKKLADMYGGGEDD
Regarding B1, the “clonal survival of individualized hES cells” value in the test on hES cells [10] was “Neither laminin-521 nor E-Cadherin alone permitted efficient clonal survival”.

The values are drawn from patent publication US10138292B2, “Cell culture medium” (BIOLAMINA AB, priority 2010, dated 2018).
